The target in this assay is T1, human PD-1 (Jurkat-PD-1 cells) / PE-labeled human PD-L1-Ig (Homo sapiens, UniProt Q15116).
T1 construct: expressed in transfected cells; host or cells: Jurkat cell line over-expressing human PD-1
The assay is described as follows: Jurkat-PD-1 Cell Binding High-Content Screening Assay (CBA); Jurkat hPD1-PDL1 assay. The following applies: Jurkat cell line over-expressing human PD-1; PE-labeled PD-L1-Ig 20 nM final; compound incubated 2 hours at 37° C.; read-out: Jurkat HPD1-PDL1 IC50. The method, boiled down: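 Cell binding by imaging: Jurkat line stably over-expressing human PD-1, compound pre-exposure 2 h at 37° C, PE-conjugated PD-L1-Ig 20 nM final, medium DMEM containing 10% FCS.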

Positions of bridges follow the written chain, without caps; N, C: chain ends. Non-standard residues stand in square brackets, D forms with d. Residues, ends and D or L forms follow the SMILES beside them. ξ: configuration not given here. *: point of attachment. Phe(4-COOH) = N[C@@H](Cc1ccc(C(=O)O)cc1)C(=O)O; Bip = N[C@@H](Cc1ccc(-c2ccccc2)cc1)C(=O)O; Phe(3-Cl) = N[C@@H](Cc1cccc(Cl)c1)C(=O)O; Phe(3-Me) = Cc1cccc(C[C@H](N)C(=O)O)c1; Val(3-OH) = CC(C)(O)[C@H](N)C(=O)O; NMeF = CN[C@@H](Cc1ccccc1)C(=O)O; 4Pal = N[C@@H](Cc1ccncc1)C(=O)O; Cha = N[C@@H](CC1CCCCC1)C(=O)O; ξR = N=C(N)NCCCC(N)C(=O)O; Carboxymethyl = O=C(O)C*; NMeA = CN[C@@H](C)C(=O)O; Orn = NCCC[C@H](N)C(=O)O; Dab = NCC[C@H](N)C(=O)O; Sar = CNCC(=O)O

T1 sequence (Q15116 25-288): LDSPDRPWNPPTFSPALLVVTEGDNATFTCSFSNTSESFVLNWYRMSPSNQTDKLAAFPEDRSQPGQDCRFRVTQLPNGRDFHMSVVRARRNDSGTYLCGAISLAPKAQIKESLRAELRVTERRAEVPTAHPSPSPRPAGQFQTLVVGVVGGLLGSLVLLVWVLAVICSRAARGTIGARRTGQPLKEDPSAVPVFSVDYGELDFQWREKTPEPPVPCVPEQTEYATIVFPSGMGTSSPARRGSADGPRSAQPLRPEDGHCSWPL

Regarding `CC(C)C[C@@H]1NC(=O)[C@H](Cc2cccc(Cl)c2)NC(=O)[C@H](CC(=O)O)NC(=O)[C@H](Cc2ccc(O)cc2)NC(=O)[C@H](Cc2ccccc2)NC(=O)CSC[C@@H](C(=O)N[C@@H](C)C(N)=O)NC(=O)[C@H](CO)NC(=O)[C@H](C(C)C)NC(=O)[C@H](CC(C)C)NC(=O)[C@H](CC(N)=O)NC(=O)CN(C)C(=O)[C@H](C)N(C)C(=O)[C@H](C(C)C)NC(=O)[C@H](Cc2ccc(-c3ccccc3)cc2)NC1=O` [Example 1061] ({CH2CO}-FYD[Phe(3-Cl)]L[Bip]V[NMeA][Sar]NLVSCA-NH2; thioether N-14), the IC50 came out at 140 nM.

With `CC(C)C[C@@H]1NC(=O)[C@H](Cc2c[nH]c3ccccc23)NC(=O)[C@H](CC(=O)O)NC(=O)[C@H](Cc2ccc(O)cc2)NC(=O)[C@H](Cc2ccccc2)NC(=O)CSC[C@@H](C(=O)NCC(N)=O)NC(=O)[C@H](CO)NC(=O)[C@H](C(C)C)NC(=O)[C@H](CC(C)C)NC(=O)[C@H](CCCCN)NC(=O)CN(C)C(=O)[C@H](C)N(C)C(=O)[C@H](C(C)C)NC(=O)[C@H](Cc2ccc(-c3ccccc3)cc2)NC1=O` [Example 1051] ({CH2CO}-FYDWL[Bip]V[NMeA][Sar]KLVSCG-NH2; thioether N-14), the IC50 amounted to 110 nM.

As for `CC(C)C[C@@H]1NC(=O)[C@H](CCCNC(=N)N)NC(=O)[C@H](Cc2ccccc2)N(C)C(=O)[C@H](C)N(C)C(=O)[C@H](CCCNC(=N)N)NC(=O)[C@H](Cc2ccc(-c3ccccc3)cc2)NC(=O)[C@H]([C@@H](C)O)NC(=O)[C@H](Cc2c[nH]c3ccccc23)NC(=O)[C@H](CC(=O)O)NC(=O)[C@H](Cc2ccc(O)cc2)NC(=O)[C@H](Cc2ccccc2)NC(=O)CSC[C@@H](C(=O)NCC(N)=O)NC(=O)[C@H](CO)NC(=O)[C@H](C(C)C)NC1=O` [Example 1283] ({CH2CO}-FYDWT[Bip]R[NMeA][NMeF]RLVSCG-NH2; thioether N-14), the IC50 amounted to 700 nM.

With `CC(C)C[C@@H]1NC(=O)C(CCCNC(=N)N)NC(=O)[C@H](Cc2ccccc2)N(C)C(=O)[C@H](C)N(C)C(=O)[C@H](CCCNC(=N)N)NC(=O)[C@H](Cc2ccc(-c3ccccc3)cc2)NC(=O)[C@H](C(C)C)NC(=O)[C@H](Cc2c[nH]c3ccccc23)NC(=O)[C@H](CC(=O)O)NC(=O)[C@H](Cc2ccc(O)cc2)NC(=O)[C@H](Cc2ccccc2)NC(=O)CSC[C@@H](C(=O)NCC(N)=O)NC(=O)[C@H](CCCNC(=N)N)NC(=O)[C@H](C(C)C)NC1=O` (some centres unmarked) [Example 1220] ({CH2CO}-FYDWV[Bip]R[NMeA][NMeF][ξR]LVRCG-NH2; thioether N-14), the IC50 came out at 720 nM.

Turning to `CC(C)C[C@@H]1NC(=O)[C@H](Cc2c[nH]c3ccccc23)NC(=O)[C@H](CC(=O)O)NC(=O)[C@H](Cc2ccc(O)cc2)NC(=O)[C@H](Cc2ccccc2)NC(=O)CSC[C@@H](C(=O)N[C@@H](C)C(N)=O)NC(=O)[C@H](CO)NC(=O)[C@H](C(C)C)NC(=O)[C@H](CC(C)C)NC(=O)[C@H](CC(N)=O)NC(=O)CN(C)C(=O)[C@H](C)N(C)C(=O)[C@H](CCC(=O)O)NC(=O)[C@H](Cc2ccc(-c3ccccc3)cc2)NC1=O` [Example 1119] ({CH2CO}-FYDWL[Bip]E[NMeA][Sar]NLVSCA-NH2; thioether N-14), the IC50 amounted to 420 nM.

Regarding `Cc1cccc(C[C@@H]2NC(=O)[C@H](CC(=O)O)NC(=O)[C@H](Cc3ccc(OCC(=O)O)cc3)NC(=O)[C@H](Cc3ccncc3)NC(=O)CSC[C@@H](C(=O)N[C@@H](CCN)C(N)=O)NC(=O)[C@H](CO)NC(=O)[C@H](C(C)(C)O)NC(=O)[C@H](CC3CCCCC3)NC(=O)[C@H](CCN)NC(=O)[C@H]3CCCN3C(=O)[C@H](C)N(C)C(=O)[C@H](C(C)C)NC(=O)[C@H](Cc3ccc(-c4ccccc4)cc3)NC(=O)[C@H](Cc3ccc(OCC(=O)O)cc3)NC2=O)c1` [Example 1184] ({CH2CO}-[4Pal]Y(Carboxymethyl)D[Phe(3-Me)]Y(Carboxymethyl)[Bip]V[NMeA][dP][Dab][Cha][Val(3-OH)]SC[Dab]-NH2; thioether N-14), the IC50 stood at 20 nM.

For the molecule `CC(C)C[C@@H]1NC(=O)[C@H](CCCNC(=N)N)NC(=O)[C@H](Cc2ccccc2)N(C)C(=O)[C@H](C)N(C)C(=O)[C@H](CCCN)NC(=O)[C@H](Cc2ccc(-c3ccccc3)cc2)NC(=O)[C@H](C(C)C)NC(=O)[C@H](Cc2c[nH]c3ccccc23)NC(=O)[C@H](CC(=O)O)NC(=O)[C@H](Cc2ccc(O)cc2)NC(=O)[C@H](CC(N)=O)NC(=O)CSC[C@@H](C(=O)N[C@@H](C)C(N)=O)NC(=O)[C@H]([C@@H](C)O)NC(=O)[C@H](C(C)C)NC1=O` [Example 1347] ({CH2CO}-NYDWV[Bip][Orn][NMeA][NMeF]RLVTCA-NH2; thioether N-14), the IC50 was found to be 160 nM.

Regarding `CC(C)C[C@@H]1NC(=O)[C@H](C)NC(=O)CN(C)C(=O)[C@H](C)N(C)C(=O)[C@H](C(C)C)NC(=O)[C@H](Cc2ccc(-c3ccccc3)cc2)NC(=O)[C@H](CC(C)C)NC(=O)[C@H](Cc2c[nH]c3ccccc23)NC(=O)[C@H](CC(=O)O)NC(=O)[C@H](Cc2ccc(O)cc2)NC(=O)[C@H](Cc2ccccc2)NC(=O)CSC[C@@H](C(=O)NCC(N)=O)NC(=O)[C@H](CO)NC(=O)[C@H](C(C)C)NC1=O` [Example 1130] ({CH2CO}-FYDWL[Bip]V[NMeA][Sar]ALVSCG-NH2; thioether N-14), the concentration for half-maximal inhibition (IC50) was 500 nM.

For `CC(C)C[C@@H]1NC(=O)[C@H](CC(N)=O)NC(=O)CN(C)C(=O)[C@H](C)N(C)C(=O)[C@H](C(C)C)NC(=O)[C@H](Cc2ccc(-c3ccccc3)cc2)NC(=O)[C@H](CC(C)C)NC(=O)[C@H](Cc2c[nH]c3ccccc23)NC(=O)[C@H](CC(=O)O)NC(=O)[C@H](Cc2ccc(O)cc2)NC(=O)[C@H](Cc2ccccc2)NC(=O)CSC[C@@H](C(=O)NCC(N)=O)NC(=O)[C@H](CO)NC(=O)[C@H](CCCCN)NC1=O` [Example 1104] ({CH2CO}-FYDWL[Bip]V[NMeA][Sar]NLKSCG-NH2; thioether N-14), the IC50 was 320 nM.

Consider `CC(C)C[C@@H]1NC(=O)[C@H](Cc2c[nH]c3ccccc23)NC(=O)[C@H](CC(=O)O)NC(=O)[C@H](Cc2ccc(O)cc2)NC(=O)[C@H](Cc2ccccc2)NC(=O)CSC[C@@H](C(=O)N[C@@H](C)C(N)=O)NC(=O)[C@H](CO)NC(=O)[C@H](C(C)C)NC(=O)[C@H](CC(C)C)NC(=O)[C@H](CC(N)=O)NC(=O)CN(C)C(=O)[C@H](C)N(C)C(=O)[C@H](C(C)C)NC(=O)[C@H](Cc2ccc(-c3ccccc3)cc2)NC1=O` [Example 1252] ({CH2CO}-FYDWL[Bip]V[NMeA][Sar]NLVSCA-NH2; thioether N-14), for which the IC50 was 190 nM.

`CC(C)C[C@@H]1NC(=O)[C@H](Cc2c[nH]c3ccccc23)NC(=O)[C@H](CC(=O)O)NC(=O)[C@H](Cc2ccc(C(=O)O)cc2)NC(=O)[C@H](Cc2ccc(OCC(=O)O)cc2)NC(=O)CSC[C@@H](C(=O)N[C@@H](C)C(N)=O)NC(=O)[C@H](CO)NC(=O)[C@H](C(C)C)NC(=O)[C@H](CC(C)C)NC(=O)[C@H](CC(N)=O)NC(=O)[C@H]2CCCN2C(=O)[C@H](C)N(C)C(=O)[C@H](C(C)C)NC(=O)[C@H](Cc2ccc(-c3ccccc3)cc2)NC1=O` [Example 1430] ({CH2CO}-Y(Carboxymethyl)[Phe(4-COOH)]DWL[Bip]V[NMeA][dP]NLVSCA-NH2; thioether N-14): the IC50 worked out at 80 nM.

In general, IC50 refers to the concentration that inhibits the measured activity by half.

The values above are taken from US20240360178A1, “MACROCYCLIC IMMUNOMODULATORS” (Bristol-Myers Squibb Company, priority 2021, published 2024).
